Source: patent publication US10039772B2, “Methods and compositions for treating alcohol use disorders” (priority 2015, dated 2018)
Entries after “also recorded” stand apart in the source; their conditions may differ.

Legend:
[1] = tested on: alcohol dependent and nondependent Wistar rats; assay: Rat operant self-administration of alcohol (dependent and nondependent rats); format: in vivo; settings: for operant alcohol self-administration (lever press responding for alcohol): both dependent and nondependent rats, alcohol 10% w/v
Description: Self-administration sessions were conducted in standard operant conditioning chambers (Med Associates). The rats were trained to self-administer alcohol as previously reported (13). First, the rats were given free-choice access to alcohol (10% w/v) and water for 1 day in their home cages to habituate them to the taste of alcohol. Second, the rats were subjected to an overnight session in the operant chambers with access to one lever (right lever) that delivered water in a fixed-ratio 1 (FR1) schedule where every lever press is reinforced with delivery of 0.1 ml of solution. Food was available ad libitum during this training. Third, after 1 day off, the rats were subjected to a 2 hour session (FR1) for 1 day and a 1 hour session (FR1) the next day, with one lever delivering alcohol (right lever). All of the subsequent sessions lasted 30 min, and two levers were available (left lever: water; right lever: alcohol) until stable levels of intake were reached. Upon completion of this procedure, the animals were allowed to self-administer a 10% (w/v) alcohol solution and water on an FR1 schedule of reinforcement.
The rats were made dependent by chronic, intermittent exposure to alcohol vapors as previously described (13).
Effect of carbenoxolone (CBX) on alcohol drinking in rats and mice.

[2] = in vivo; cited from earlier work
Wistar rats = settings: saccharin 0.004%; 0 and 40 mg/kg IP 90 min prior; 30 min session, FR1; listed as carbenoxolone
C57BL/6J mice = assay: Mouse drinking in the dark (DID) binge-like drinking; format: in vivo; settings: for ethanol intake in the DID paradigm: mice, 4 h drinking session, vs saline vehicle
Description: The DID paradigm capitalizes on the circadian rhythm in drinking of mice utilizing a discrete time of exposure to ethanol to obtain pharmacologically significant ethanol drinking in a four-day procedure (114, 115). It is considered a preclinical model of binge alcohol drinking (116). Blood ethanol levels of C57BL/6J mice in DID are reliably over 100 mg % following the final drinking bout and produce behavioral intoxication in C57BL/6J mice (115). In the DID paradigm, the water bottle is replaced with a bottle containing 20% ethanol for 2 hours in the home cage 3 hours after lights go off. The design involves 3 daily drinking sessions of 2 hours and a fourth of 4 hours (114, 115).

[3] = tested on: dependent and non-dependent C57BL/6J mice; assay: Mouse limited access 2-bottle choice with chronic intermittent ethanol exposure (CIE); format: in vivo; settings: for ethanol intake in non-dependent and dependent mice (CIE paradigm): limited access 2-bottle choice, acute IP
Description: Exposure of mice to repeated cycles of intermittent ethanol vapor in order to induce dependence increases ethanol drinking following withdrawal in a 2-bottle choice paradigm (112, 113). Thus, the CIE paradigm is used to test the effects of a drug on dependent and nondependent drinking in mice. Briefly, C57BL/6J mutant and WT mice had access to two bottles, one containing water and the other containing 15% (w/v) ethanol, for 2 hours starting 3 hours into the dark phase. Following acquisition of stable alcohol intake, half of the mice were subjected to repeated bouts of ethanol vapor exposure consisting of 16 hours per day for 4 days. Before each exposure to ethanol vapor, mice were IP injected with a solution of 20% v/v ethanol and 68.1 mg/kg pyrazole and immediately placed into ethanol vapor chambers (La Jolla Ethanol Research, CA). Tail blood sampling for blood ethanol level (BAL) determination was carried out daily. Target BALs were 150-200 mg %. Seventy-two hours following removal from the chambers, mice received access to water vs. 20% ethanol for 2 hours, and again over the next 4 days. The following week, mice were re-exposed to the ethanol vapor/control conditions and again tested for t2-bottle choice drinking for 5 days. Three vapor bouts followed by 2-bottle choice were carried out. Mice were weighed every 4-6 days throughout the 2-bottle choice sessions and daily during the vapor exposure bouts. Food and water were available ad libitum and mice were group housed except during the ethanol drinking sessions.

[4] = tested on: inflammasome activation in neurons and astrocytes; settings: cited from earlier work
Pannexin 1 = Pannexin 1 (Homo sapiens, UniProt Q96RD7); settings: cited from earlier work
dependent rats = settings: systemic glucocorticoid receptor antagonism; cited from earlier work

Pannexin 1, sequence (Q96RD7 whole entry, species assumed): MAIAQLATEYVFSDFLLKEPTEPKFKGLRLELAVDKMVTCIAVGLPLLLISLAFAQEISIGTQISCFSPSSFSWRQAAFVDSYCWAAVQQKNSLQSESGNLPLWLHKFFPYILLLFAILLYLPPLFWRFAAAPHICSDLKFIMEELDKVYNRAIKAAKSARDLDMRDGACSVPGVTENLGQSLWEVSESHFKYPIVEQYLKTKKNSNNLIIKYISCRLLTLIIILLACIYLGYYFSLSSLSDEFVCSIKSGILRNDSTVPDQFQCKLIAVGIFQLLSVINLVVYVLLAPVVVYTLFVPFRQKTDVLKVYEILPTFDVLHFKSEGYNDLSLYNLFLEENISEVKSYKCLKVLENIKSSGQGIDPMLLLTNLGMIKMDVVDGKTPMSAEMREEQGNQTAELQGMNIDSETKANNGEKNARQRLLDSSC

SMILES: CC1(C(=O)O)CCC2(C)CCC3(C)C(=CC(=O)C4C5(C)CCC(OC(=O)CCC(=O)O)C(C)(C)C5CCC43C)C2C1 (stereo not drawn) [Number 3, 18β-glycyrrhetinic acid 3β-O-hemisuccinate]
- operant alcohol self-administration (lever press responding for alcohol) ([1]; 0, 20, 40 mg/kg IP 90 min prior, 30 min session, FR1, listed as CBX): decreases; also recorded: dose-dependently reduced
- operant alcohol self-administration (lever press responding for alcohol) ([1]; 0, 20, 40 mg/kg IP 90 min prior, 30 min session, FR1, listed as carbenoxolone): effectively and dose-dependently reduces
- water intake / water responding ([1]; dependent and nondependent rats, 0, 20, 40 mg/kg IP 90 min prior, 30 min session, FR1, listed as CBX): did not influence; also recorded: No significant effects
- crossing of the blood brain barrier (BBB) [2]: does not effectively cross
- operant self-administration of saccharin-sweetened water (Wistar rats): did not affect
- time course of the effect on ethanol intake within the DID session (C57BL/6J mice; first 2 h vs whole 4 h session): more pronounced in the first 2 hours
- ethanol intake in the DID paradigm (C57BL/6J mice; listed as CBX): reduce
- ethanol intake in the DID paradigm (C57BL/6J mice; listed as Carbenoxolone): reduced
- ethanol intake in non-dependent and dependent mice (CIE paradigm) ([3]; listed as CBX): reduces
- ethanol intake in non-dependent and dependent mice (CIE paradigm) ([3]; listed as Carbenoxolone): reduced
- ethanol intake, dependent mice ([3]; limited access (2 h) 2-bottle choice after alcohol vapor, 40 mg/kg IP): reduced
- ethanol intake, non-dependent mice ([3]; limited access (2 h) 2-bottle choice, 20 and 40 mg/kg IP): reduced

SMILES: CCCN(CCC)S(=O)(=O)c1ccc(C(=O)O)cc1 [Number 257, Probenecid]
- inflammasome activation in neurons and astrocytes [4]: prevents
- alcohol self-administration, alcohol dependent rats ([1]; acute, systemic administration): decreases
- inhibition of Pannexin 1 (Pannexin 1): inhibits

SMILES: CC#C[C@]1(O)CC[C@H]2[C@@H]3CCC4=CC(=O)CCC4=C3[C@@H](c3ccc(N(C)C)cc3)C[C@@]21C [mifepristone]
- escalated alcohol drinking and compulsive response for alcohol (dependent rats): blocked
